Reference: ChEMBL document CHEMBL4229379, “Synthesis and structure-activity relationship of novel bisindole amidines active against MDR Gram-positive and Gram-negative bacteria” (Eur J Med Chem, 2018)
Converted amounts (≈) assume the structure as drawn.

Legend:
Citrobacter freundii = experiment: Antibacterial activity against Citrobacter freundii ATCC 43864 after 18 hrs by CLSI broth microdilution method; format: functional; conditions: ATCC 43864, 18 h
Pseudomonas aeruginosa [1] = experiment: Antibacterial activity against Pseudomonas aeruginosa PAO1 after 18 hrs by CLSI broth microdilution method; format: functional; conditions: PAO1, 18 h
Pseudomonas aeruginosa [2] = experiment: Antibacterial activity against Pseudomonas aeruginosa ATCC 27853 after 18 hrs by CLSI broth microdilution method; format: functional; conditions: ATCC 27853, 18 h
Escherichia coli [3] = experiment: Antibacterial activity against extended-spectrum beta-lactamase deficient Escherichia coli 12-14 after 18 hrs by CLSI broth microdilution method; format: functional; conditions: 12-14, 18 h
Enterococcus faecalis [4] = experiment: Antibacterial activity against vancomycin-resistant Enterococcus faecalis ATCC 51299 after 18 hrs by CLSI broth microdilution method; format: functional; conditions: ATCC 51299, 18 h
[5] = tested on: Acinetobacter calcoaceticus; experiment: Antibacterial activity against Acinetobacter calcoaceticus ATCC 19606 after 18 hrs by CLSI broth microdilution method; format: functional; conditions: ATCC 19606, 18 h
Enterococcus faecium [6] = experiment: Antibacterial activity against vancomycin-resistant Enterococcus faecium ATCC 700221 after 18 hrs by CLSI broth microdilution method; format: functional; conditions: ATCC 700221, 18 h
Klebsiella pneumoniae [7] = experiment: Antibacterial activity against new delhi metallo-beta-lactamase-1 harboring Klebsiella pneumoniae ATCC BAA-2146 after 18 hrs by CLSI broth microdilution method; format: functional; conditions: ATCC BAA-2146, 18 h
Enterococcus faecium [8] = experiment: Antibacterial activity against vancomycin-sensitive Enterococcus faecium 12-3 after 18 hrs by CLSI broth microdilution method; format: functional; conditions: 12-3, 18 h
Enterococcus faecium [9] = experiment: Antibacterial activity against vancomycin-resistant Enterococcus faecium 12-1 after 18 hrs by CLSI broth microdilution method; format: functional; conditions: 12-1, 18 h
Klebsiella pneumoniae [10] = experiment: Antibacterial activity against extended-spectrum beta-lactamase harboring Klebsiella pneumoniae 12-8 after 18 hrs by CLSI broth microdilution method; format: functional; conditions: 12-8, 18 h
[11] = tested on: Staphylococcus epidermidis; experiment: Antibacterial activity against methicillin-sensitive Staphylococcus epidermidis 12-6 after 18 hrs by CLSI broth microdilution method; format: functional; conditions: 12-6, 18 h
[12] = tested on: Staphylococcus epidermidis; experiment: Antibacterial activity against methicillin-resistant Staphylococcus epidermidis 12-8 after 18 hrs by CLSI broth microdilution method; format: functional; conditions: 12-8, 18 h
[13] = tested on: Stenotrophomonas maltophilia; experiment: Antibacterial activity against Stenotrophomonas maltophilia ATCC 13636 after 18 hrs by CLSI broth microdilution method; format: functional; conditions: ATCC 13636, 18 h
Enterococcus faecalis [14] = experiment: Antibacterial activity against vancomycin-sensitive Enterococcus faecalis ATCC 29212 after 18 hrs by CLSI broth microdilution method; format: functional; conditions: ATCC 29212, 18 h
Pseudomonas aeruginosa [15] = experiment: Antibacterial activity against Pseudomonas aeruginosa 12-16 after 18 hrs by CLSI broth microdilution method; format: functional; conditions: 12-16, 18 h
Staphylococcus aureus [16] = experiment: Antibacterial activity against methicillin-sensitive Staphylococcus aureus 12-28 after 18 hrs by CLSI broth microdilution method; format: functional; conditions: 12-28, 18 h
Klebsiella pneumoniae [17] = experiment: Antibacterial activity against extended-spectrum beta-lactamase deficient Klebsiella pneumoniae 7 after 18 hrs by CLSI broth microdilution method; format: functional; conditions: Klebsiella pneumoniae, 7, 18 h
Staphylococcus aureus [18] = experiment: Antibacterial activity against methicillin-resistant Staphylococcus aureus ATCC 33591 after 18 hrs by CLSI broth microdilution method; format: functional; conditions: ATCC 33591, 18 h
Klebsiella aerogenes = experiment: Antibacterial activity against Enterobacter aerogenes ATCC 13048 after 18 hrs by CLSI broth microdilution method; format: functional; conditions: ATCC 13048, 18 h
Providencia rettgeri = experiment: Antibacterial activity against Providencia rettgeri ATCC 31052 after 18 hrs by CLSI broth microdilution method; format: functional; conditions: ATCC 31052, 18 h
Enterococcus faecalis [19] = experiment: Antibacterial activity against vancomycin-sensitive Enterococcus faecalis 12-5 after 18 hrs by CLSI broth microdilution method; format: functional; conditions: 12-5, 18 h
Staphylococcus aureus [20] = experiment: Antibacterial activity against methicillin-sensitive Staphylococcus aureus ATCC 29213 after 18 hrs by CLSI broth microdilution method; format: functional; conditions: ATCC 29213, 18 h
Proteus vulgaris = experiment: Antibacterial activity against Proteus vulgaris ATCC 29905 after 18 hrs by CLSI broth microdilution method; format: functional; conditions: ATCC 29905, 18 h
Escherichia coli [21] = experiment: Antibacterial activity against extended-spectrum beta-lactamase harboring Escherichia coli 12-15 after 18 hrs by CLSI broth microdilution method; format: functional; conditions: 12-15, 18 h
Enterococcus faecalis [22] = experiment: Antibacterial activity against vancomycin-resistant Enterococcus faecalis 09-9 after 18 hrs by CLSI broth microdilution method; format: functional; conditions: 09-9, 18 h
Klebsiella pneumoniae [23] = experiment: Antibacterial activity against extended-spectrum beta-lactamase harboring Klebsiella pneumoniae ATCC 700603 after 18 hrs by CLSI broth microdilution method; format: functional; conditions: Klebsiella pneumoniae, 700603, 18 h
Proteus mirabilis = experiment: Antibacterial activity against Proteus mirabilis 12-6 after 18 hrs by CLSI broth microdilution method; format: functional; conditions: 12-6, 18 h
Escherichia coli [24] = experiment: Antibacterial activity against extended-spectrum beta-lactamase deficient Escherichia coli 1515 after 18 hrs by CLSI broth microdilution method; format: functional; conditions: Escherichia coli, 1515, 18 h
Klebsiella pneumoniae [25] = experiment: Antibacterial activity against extended-spectrum beta-lactamase deficient Klebsiella pneumoniae 12-4 after 18 hrs by CLSI broth microdilution method; format: functional; conditions: 12-4, 18 h
[26] = Cytotoxicity against HEK293T cells assessed as reduction in cell viability after 48 hrs by MTS assay; format: cell-based, HEK-293T; conditions: human
Escherichia coli [27] = experiment: Antibacterial activity against extended-spectrum beta-lactamase deficient Escherichia coli ATCC 25922 after 18 hrs by CLSI broth microdilution method; format: functional; conditions: ATCC 25922, 18 h
[28] = tested on: Staphylococcus epidermidis; experiment: Antibacterial activity against methicillin-sensitive Staphylococcus epidermidis ATCC 12228 after 18 hrs by CLSI broth microdilution method; format: functional; conditions: ATCC 12228, 18 h
Enterobacter cloacae = experiment: Antibacterial activity against Enterobacter cloacae ATCC 43560 after 18 hrs by CLSI broth microdilution method; format: functional; conditions: ATCC 43560, 18 h
Staphylococcus aureus [29] = experiment: Antibacterial activity against methicillin-sensitive Staphylococcus aureus 15 after 18 hrs by CLSI broth microdilution method; format: functional; conditions: Staphylococcus aureus, 15, 18 h
Serratia marcescens = experiment: Antibacterial activity against Serratia marcescens ATCC 21074 after 18 hrs by CLSI broth microdilution method; format: functional; conditions: ATCC 21074, 18 h
Staphylococcus aureus [30] = experiment: Antibacterial activity against methicillin-resistant Staphylococcus aureus 12-33 after 18 hrs by CLSI broth microdilution method; format: functional; conditions: 12-33, 18 h

Structure (SMILES): N=C(c1ccc2cc(-c3ccc(-c4cc5ccc(C(=N)N6CCCC6)cc5[nH]4)cc3)[nH]c2c1)N1CCCC1
- MIC (Citrobacter freundii): 8 µg/mL (≈ 16 µM)
- MIC (Pseudomonas aeruginosa [1]): > 128 µg/mL
- MIC (Pseudomonas aeruginosa [2]): > 128 µg/mL
- MIC (Escherichia coli [3]): 4 µg/mL (≈ 7.99 µM)
- MIC (Enterococcus faecalis [4]): 8 µg/mL (≈ 16 µM)
- MIC [5]: 16 µg/mL (≈ 32 µM)
- MIC (Enterococcus faecium [6]): 4 µg/mL (≈ 7.99 µM)
- MIC (Klebsiella pneumoniae [7]): 8 µg/mL (≈ 16 µM)
- MIC (Enterococcus faecium [8]): 4 µg/mL (≈ 7.99 µM)
- MIC (Enterococcus faecium [9]): 4 µg/mL (≈ 7.99 µM)
- MIC (Klebsiella pneumoniae [10]): 8 µg/mL (≈ 16 µM)
- MIC [11]: 0.25 µg/mL (≈ 0.499 µM)
- MIC [12]: 1 µg/mL (≈ 2 µM)
- MIC [13]: 16 µg/mL (≈ 32 µM)
- MIC (Enterococcus faecalis [14]): 4 µg/mL (≈ 7.99 µM)
- MIC (Pseudomonas aeruginosa [15]): 64 µg/mL (≈ 128 µM)
- MIC (Staphylococcus aureus [16]): 2 µg/mL (≈ 3.99 µM)
- MIC (Klebsiella pneumoniae [17]): 8 µg/mL (≈ 16 µM)
- MIC (Staphylococcus aureus [18]): 2 µg/mL (≈ 3.99 µM)
- MIC (Klebsiella aerogenes): 8 µg/mL (≈ 16 µM)
- MIC (Providencia rettgeri): 8 µg/mL (≈ 16 µM)
- MIC (Enterococcus faecalis [19]): 4 µg/mL (≈ 7.99 µM)
- MIC (Staphylococcus aureus [20]): 2 µg/mL (≈ 3.99 µM)
- MIC (Proteus vulgaris): 8 µg/mL (≈ 16 µM)
- MIC (Escherichia coli [21]): 4 µg/mL (≈ 7.99 µM)
- MIC (Enterococcus faecalis [22]): 4 µg/mL (≈ 7.99 µM)
- MIC (Klebsiella pneumoniae [23]): 16 µg/mL (≈ 32 µM)
- MIC (Proteus mirabilis): 8 µg/mL (≈ 16 µM)
- MIC (Escherichia coli [24]): 4 µg/mL (≈ 7.99 µM)
- MIC (Klebsiella pneumoniae [25]): 8 µg/mL (≈ 16 µM)
- CC50 at 48 h [26]: 4.15 µg/mL (≈ 8.29 µM)
- MIC (Escherichia coli [27]): 4 µg/mL (≈ 7.99 µM)
- MIC [28]: 0.25 µg/mL (≈ 0.499 µM)
- MIC (Enterobacter cloacae): 8 µg/mL (≈ 16 µM)
- MIC (Staphylococcus aureus [29]): 2 µg/mL (≈ 3.99 µM)
- MIC (Serratia marcescens): 64 µg/mL (≈ 128 µM)
- MIC (Staphylococcus aureus [30]): 2 µg/mL (≈ 3.99 µM)

Structure (SMILES): c1cc2cc(-c3ccc(-c4cc5ccc(C6=NCCCN6)cc5[nH]4)cc3)[nH]c2cc1C1=NCCCN1
- MIC (Citrobacter freundii): 4 µg/mL (≈ 8.46 µM)
- MIC (Pseudomonas aeruginosa [1]): 4 µg/mL (≈ 8.46 µM)
- MIC (Pseudomonas aeruginosa [2]): 4 µg/mL (≈ 8.46 µM)
- MIC (Escherichia coli [3]): 4 µg/mL (≈ 8.46 µM)
- MIC (Enterococcus faecalis [4]): 0.5 µg/mL (≈ 1.06 µM)
- MIC [5]: 64 µg/mL (≈ 135 µM)
- MIC (Enterococcus faecium [6]): 0.25 µg/mL (≈ 0.529 µM)
- MIC (Klebsiella pneumoniae [7]): 16 µg/mL (≈ 33.9 µM)
- MIC (Enterococcus faecium [8]): 1 µg/mL (≈ 2.12 µM)
- MIC (Enterococcus faecium [9]): 0.25 µg/mL (≈ 0.529 µM)
- MIC (Klebsiella pneumoniae [10]): 8 µg/mL (≈ 16.9 µM)
- MIC [11]: 0.25 µg/mL (≈ 0.529 µM)
- MIC [12]: 0.25 µg/mL (≈ 0.529 µM)
- MIC [13]: 4 µg/mL (≈ 8.46 µM)
- MIC (Enterococcus faecalis [14]): 0.5 µg/mL (≈ 1.06 µM)
- MIC (Pseudomonas aeruginosa [15]): 16 µg/mL (≈ 33.9 µM)
- MIC (Staphylococcus aureus [16]): 0.25 µg/mL (≈ 0.529 µM)
- MIC (Klebsiella pneumoniae [17]): 8 µg/mL (≈ 16.9 µM)
- MIC (Staphylococcus aureus [18]): 0.25 µg/mL (≈ 0.529 µM)
- MIC (Klebsiella aerogenes): 8 µg/mL (≈ 16.9 µM)
- MIC (Providencia rettgeri): 8 µg/mL (≈ 16.9 µM)
- MIC (Enterococcus faecalis [19]): 0.5 µg/mL (≈ 1.06 µM)
- MIC (Staphylococcus aureus [20]): 0.25 µg/mL (≈ 0.529 µM)
- MIC (Proteus vulgaris): 16 µg/mL (≈ 33.9 µM)
- MIC (Escherichia coli [21]): 8 µg/mL (≈ 16.9 µM)
- MIC (Enterococcus faecalis [22]): 0.5 µg/mL (≈ 1.06 µM)
- MIC (Klebsiella pneumoniae [23]): 32 µg/mL (≈ 67.7 µM)
- MIC (Proteus mirabilis): 128 µg/mL (≈ 271 µM)
- MIC (Escherichia coli [24]): 8 µg/mL (≈ 16.9 µM)
- MIC (Klebsiella pneumoniae [25]): 8 µg/mL (≈ 16.9 µM)
- CC50 at 48 h [26]: 4.33 µg/mL (≈ 9.16 µM)
- MIC (Escherichia coli [27]): 4 µg/mL (≈ 8.46 µM)
- MIC [28]: 0.25 µg/mL (≈ 0.529 µM)
- MIC (Enterobacter cloacae): 8 µg/mL (≈ 16.9 µM)
- MIC (Staphylococcus aureus [29]): 0.25 µg/mL (≈ 0.529 µM)
- MIC (Serratia marcescens): 16 µg/mL (≈ 33.9 µM)
- MIC (Staphylococcus aureus [30]): 0.25 µg/mL (≈ 0.529 µM)
